The record followed here is US20090054333A1, “Peptide inhibitors of cyclin-dependent kinase activity and uses thereof” (priority 2006, published 2009).

No end group written: not given here.

The assay deals with cdk2. Put plainly: in vitro cdk2 kinase assay with GST-fusion proteins, histone H1 substrate. Type of assay: biochemical. Set-up: key to Kinase assay (inhibitory effect on cdk2 activity): P=positive; N=negative. The settings on record: for Kinase assay (inhibitory effect on cdk2 activity): 0.1 μg GST-fusion protein, cdk2 immunoprecipitated from NIH/3T3; for inhibitory effect on cdk2 activity / histone H1 phosphorylation in vitro: GST-fusion protein added to cdk2 immunoprecipitate from NIH/3T3. As to the method:
Constructs preparation: A prokaryotic expression vector pGEX-2T (Stratagene Inc., La Jolla Calif.) and polymerase chain reaction (PCR) were used to generate chimeric Glutathione-S-Transferase constructs. The primers used by PCR to amplify the fragments that were subcloned in the pGEX-2T were derived from the 5′ and 3′ ends of different regions of the spacer domain of […]. The mammalian expression vector pEF6/V5-His TOPO (Invitrogen Corp, Carlsbad, Calif.) was used to generate the constructs pEF6/V5-His-spacer and pEF6/V5-His-310 that express the correspondent genes with a C-terminal V5 epitope. The spacer and the 310 fragments were PCR-amplified with the respective primers (Table 1) to generate 3′ends of the cDNAs without stop codons and were subsequently subcloned into pEF6/V5-His TOPO (Invitrogen Corp, Carlsbad, Calif.) according to the manufacturer's instructions to obtain cDNAs coding for C-terminal fusion proteins. All generated constructs were confirmed by automated sequencing. Information regarding the primers is available upon request.
GST Fusion protein preparation: XL1-Blue bacteria carrying the pGEX-2T vectors were grown to mid log phase and then induced to express protein by adding 0.25 mM of isopropyl-1-thio-β-D-galactopyranoside (IPTG, Roche Applied Science, Indianapolis, Ind.). The cultures were shaken for 4 h; bacteria were then pelleted and resuspended in NENT buffer (20 mM Tris pH 8, 100 mM NaCl, 1 mM EDTA, 0.5% NP-40). Cell suspensions were sonicated, pelleted and the supernatant collected. The remaining bacteria were then resuspended in NENT buffer plus 2% of N-Lauryl-Sarcosine, pelleted and the supernatants were collected again. The combined supernatants were incubated with Glutathione agarose (Amersham Biosciences, Piscataway, N.J.) overnight at 4° C. The agarose was then pelleted and washed three times in NENT buffer.
Kinase assays: Cell lysates from NIH/3T3 were prepared by resuspending pelleted cells in 500 μl of lysis buffer (50 mM Tris, 5 mM EDTA, 250 mM NaCl, 50 mM NaF, 0.1% Triton, 0.1 mM Na3VO4, plus protease inhibitors). An equal amount of protein for each fraction (100 μg) was immunoprecipitated with a polyclonal anti-cdk2 antibody (De Luca et al., 1997, J Biol Chem, 272, 20971-4). The complexes were pulled down with protein A-Sepharose and washed three times with lysis buffer and twice with lysis buffer containing 400 mM NaCl. The complexes were equilibrated in kinase assay buffer (20 mM HEPES pH 7.4, 10 mM MgAc, […], 1 mM DTT). In order to detect the in vitro inhibition of cdk2 activity, each sample was incubated with an equal amount (0.1 μg) of each pGEX-2T fusion protein, in a final volume of 20 μl of kinase buffer, using 5 μCi/sample of γ-ATP (Amersham Biosciences, Piscataway, N.J.) and 2 μg of Histone H1 for 30 minutes at 30° C. Kinase assays were repeated at least three times, giving an inter assay standard deviation within 10% after normalization for protein amount. In order to evaluate the in vivo inhibition of cdk2 activity, cdk2 was immunoprecipitated, as described above, from NIH/3T3 cells transiently transfected with 5 μg of pEF6/V5-spacer, pEF6/V5-Spa310 or the vector alone as a control. The immunocomplexes were split in two tubes. A half of each sample was assayed for cdk2 activity in a final volume of 20 μl of kinase buffer with 5 μCi/sample of γ-ATP and 2 μg of Histone H1 for 30 min. at 30° C.; the second one was tested in western blot analysis to confirm that all the samples contained the amount of cdk2 immunoprecipitated. Briefly the samples were separated into 12% SDS polyacrylamide gels (SDS-PAGE), and then transferred into a nitrocellulose membrane (Schleicher & Schuell, Germany). The membrane was blocked with 5% non-fat dry milk in 1×TBST and incubated with the polyclonal anti-cdk2 antibody described above. […]

For “Spa72: Table 1 construct: pRb2/p130 spacer fragment, amino acids 652-711, 60 amino acids (DTGGLGRSITSPTTLYDRYSSPPASTTRRRLFVENDSPSDGGTPGRMPPQPLVNAVPVQN; also: fused to dimerising Fc or GST)”, the “Kinase assay (inhibitory effect on cdk2 activity)” value was “N”.

For “Spa311: pRb2/p130 amino acids 641 to 682 (42 amino acids long), SEQ ID NO:2 (LTPRRVTEVRADTGGLGRSITSPTTLYDRYSSPPASTTRRRL; listed as Homo sapiens)”, the “Kinase assay (inhibitory effect on cdk2 activity)” value was “P”.

On to “Spa1: pRb2/p130 spacer fragment, amino acids 616-642, 27 amino acids (VPTCEEVMPPQNLERADEICIAGSPLT; cysteine pairing not given here; also: fused to dimerising Fc or GST)”, for which the “Kinase assay (inhibitory effect on cdk2 activity)” value is “N” and the “inhibitory effect on cdk2 activity / histone H1 phosphorylation in vitro” value is recorded as “little or no inhibitory effect”.

For the molecule “Spb: pRb2/p130 spacer fragment, amino acids 712-754, 43 amino acids (VSGETVSVTPVPGQTLVTMATATVTANNGQTVTIPVQGIANEN; also: fused to dimerising Fc or GST)”, the “Kinase assay (inhibitory effect on cdk2 activity)” value is on record as “N”.

For “Spa312: pRb2/p130 spacer fragment, amino acids 641-673, 33 amino acids (LTPRRVTEVRADTGGLGRSITSPTTLYDRYSSP; also: fused to dimerising Fc or GST)”, the “Kinase assay (inhibitory effect on cdk2 activity)” value is “N”.

For the molecule “Spa2: pRb2/p130 spacer fragment, amino acids 641-666, 26 amino acids (LTPRRVTEVRADTGGLGRSITSPTTL; UniProt Q08999 641-666, looked up, fragment)”, the “Kinase assay (inhibitory effect on cdk2 activity)” value was “N” and the “inhibitory effect on cdk2 activity / histone H1 phosphorylation in vitro” value was “little or no inhibitory effect”.

For the molecule “Spa12: pRb2/p130 spacer fragment, amino acids 616-666, 51 amino acids (VPTCEEVMPPQNLERADEICIAGSPLTPRRVTEVRADTGGLGRSITSPTTL; cysteine pairing not given here; also: fused to dimerising Fc or GST)”, the “Kinase assay (inhibitory effect on cdk2 activity)” value was “N”.

For the molecule “Spa3: pRb2/p130 spacer fragment, amino acids 663-711, 49 amino acids (PTTLYDRYSSPPASTTRRRLFVENDSPSDGGTPGRMPPQPLVNAVPVQN; also: fused to dimerising Fc or GST)”, the “Kinase assay (inhibitory effect on cdk2 activity)” value was “N” and the “inhibitory effect on cdk2 activity / histone H1 phosphorylation in vitro” value is on record as “little or no inhibitory effect”.

B1: Spa23: Table 1 construct: pRb2/p130 spacer fragment, amino acids 641-711, 71 amino acids (protein)
chain: LTPRRVTEVRADTGGLGRSITSPTTLYDRYSSPPASTTRRRLFVENDSPSDGGTPGRMPPQPLVNAVPVQN
modifications: left off: a dimerising Fc or GST
B1: the “Kinase assay (inhibitory effect on cdk2 activity)” value is reported as “P” and the “inhibitory effect on cdk2 activity / histone H1 phosphorylation in vitro” value is recorded as “able to inhibit cdk2 activity”.

B2: Spa38: pRb2/p130 amino acids 641 to 702 (62 amino acids long), SEQ ID NO:1 (protein, listed as Homo sapiens)
chain: LTPRRVTEVRADTGGLGRSITSPTTLYDRYSSPPASTTRRRLFVENDSPSDGGTPGRMPPQP
Turning to B2, the “Kinase assay (inhibitory effect on cdk2 activity)” value was “P”.

B3: Spc: pRb2/p130 spacer fragment, amino acids 755-828, 73 amino acids (protein)
chain: GGITFFPVQVNVGGQAQAVTGSIQPLSAQALAGSLSSQQVTGTTLQVPGQVAIQQISPGGQQQKQGQSVTSSSN
modifications: left off: a dimerising Fc or GST
notes: pRb2/p130 spacer fragment, amino acids 755-828, 73 amino acids
As for B3, the “Kinase assay (inhibitory effect on cdk2 activity)” value is given as “N”.

B4: Spa: pRb2/p130 spacer fragment, amino acids 616-711, 96 amino acids (protein)
chain: VPTCEEVMPPQNLERADEICIAGSPLTPRRVTEVRADTGGLGRSITSPTTLYDRYSSPPASTTRRRLFVENDSPSDGGTPGRMPPQPLVNAVPVQN
modifications: left off: a dimerising Fc or GST
B4: the “Kinase assay (inhibitory effect on cdk2 activity)” value is on record as “P” and the “inhibitory effect on cdk2 activity / histone H1 phosphorylation in vitro” value is listed as “inhibitory effect on histone H1 phosphorylation”.
